The assay concerns the target T1, Isoform 2 of Nuclear receptor ROR-alpha (Alpha-2) (Homo sapiens, UniProt P35398).
T1 sequence (P35398 whole entry): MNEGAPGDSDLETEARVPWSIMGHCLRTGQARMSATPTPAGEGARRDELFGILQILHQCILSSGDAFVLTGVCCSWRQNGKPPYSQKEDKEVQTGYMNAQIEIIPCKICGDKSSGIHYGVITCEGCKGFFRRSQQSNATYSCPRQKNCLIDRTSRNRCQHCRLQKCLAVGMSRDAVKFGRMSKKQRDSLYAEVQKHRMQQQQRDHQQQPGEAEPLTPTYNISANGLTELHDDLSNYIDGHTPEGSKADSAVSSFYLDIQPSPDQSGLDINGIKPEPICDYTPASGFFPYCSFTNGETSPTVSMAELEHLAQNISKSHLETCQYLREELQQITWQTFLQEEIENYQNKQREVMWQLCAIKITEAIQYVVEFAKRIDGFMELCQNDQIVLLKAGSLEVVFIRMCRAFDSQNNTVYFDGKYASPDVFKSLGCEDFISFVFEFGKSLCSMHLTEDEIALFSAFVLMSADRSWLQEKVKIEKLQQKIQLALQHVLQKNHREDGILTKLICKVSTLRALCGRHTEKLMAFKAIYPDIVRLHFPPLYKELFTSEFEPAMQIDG
The experiment in a line: RORA Gal4 reporter activation in CHO-K1 cells, dose response, counter-screen for SF-1 activator project, cell-based, Gal4-RORA LBD, luciferase luminescence (AID 675).

Each structure is given as a SMILES string. Where a name gives a salt, the structure may show the parent alone.

What is called EC50 is the concentration that produces a half-maximal response. A low value points to greater potency. With `COc1ccc(NC(=O)c2ccc3c(c2)OCO3)cc1Cl` [MLS000053302], the EC50 is > 99000 nM.

As to `COc1ccc2nc3sc(C(=O)NCc4cccs4)c(N)c3cc2c1` [3-Amino-6-methoxy-thieno[2,3-b]quinoline-2-carboxylic acid (thiophen-2-ylmethyl)-amide], the EC50 was > 407 nM.

With `COc1ccc(OC)c2sc(NC(=O)c3ccc(Br)s3)nc12` [5-bromanyl-N-(4,7-dimethoxy-1,3-benzothiazol-2-yl)thiophene-2-carboxamide], the EC50 is > 99000 nM.

On to `CC(=NC1CCCC1)c1c(C)[nH]n(-c2nc3ccccc3s2)c1=O` [(4Z)-2-(1,3-benzothiazol-2-yl)-4-[1-(cyclopentylamino)ethylidene]-5-methylpyrazol-3-one], for which the EC50 is > 1220 nM.

As for `C=CCn1c(-c2ccccc2)c[nH]c1=S` [MLS000071728], the EC50 was 1470 nM.

As for `O=C(Nc1ccc2c(c1)OCO2)c1ccc(COc2ccc3c(c2)CCC3)o1` [MLS000048173], the EC50 was 446 nM.

As to `COc1cc(C2c3c(c(O)n(-c4ccccc4)c3O)ON2c2ccccc2)ccc1O` (centres undefined) [3-(3-methoxy-4-oxidanyl-phenyl)-2,5-diphenyl-3a,6a-dihydro-3H-pyrrolo[3,4-d][1,2]oxazole-4,6-dione], the EC50 is > 33000 nM.

`CCc1nc(Nc2ccc3nccnc3c2)c2oc3ccccc3c2n1` [(2-ethylbenzofuro[3,2-d]pyrimidin-4-yl)-quinoxalin-6-yl-amine;hydrochloride]: the EC50 is > 99000 nM.

As for `COc1ccc(-c2cn3ccsc3n2)cc1` [6-(4-methoxyphenyl)imidazo[2,1-b][1,3]thiazole], the EC50 amounted to 283 nM.

`COCCn1c(C)cc(C(=O)COC(=O)C23CC4CC(CC(O)(C4)C2)C3)c1C` [[2-[1-(2-methoxyethyl)-2,5-dimethylpyrrol-3-yl]-2-oxoethyl] 3-hydroxyadamantane-1-carboxylate] displayed an EC50 of 741 nM.

`COc1ccc(C(=O)CC=Nc2cccc(C)n2)cc1OC` gave an EC50 of 749 nM.

Turning to `CC(=O)Nc1ccc(-c2nc3c(C)cccc3[nH]2)cc1` [SMR000001134], the EC50 turned out to be 747 nM.

In the case of `CCOC(=O)CSc1nc(-c2ccc3c(c2)OCO3)ccc1C#N` [2-[[6-(1,3-benzodioxol-5-yl)-3-cyano-2-pyridinyl]thio]acetic acid ethyl ester], the 50% effective concentration (EC50) worked out at 5650 nM.

Turning to `CN(C)C(=O)CSc1nnc(C23CC4CC(CC(C4)C2)C3)o1` [SMR000077996], the response was half-maximal at 5360 nM (EC50).

As for `COc1ccc(CNC(=O)NC2CCCCC2)cc1` [1-cyclohexyl-3-[(4-methoxyphenyl)methyl]urea], the EC50 is > 99000 nM.

As to `CCOC(=O)c1cc2cc(OC)ccc2[nH]1` [MLS000071430], the EC50 amounted to 1570 nM.

`Fc1cnc(N2CCOCC2)nc1N1CCc2ccccc21` [1-[5-fluoro-2-(4-morpholinyl)-4-pyrimidinyl]indoline] came in with an EC50 (inactive by the depositor's call) of 10200 nM.

As for `CCc1nnc(NC(=O)CSc2nc3c(cc2C#N)CCC3)s1` [2-[(3-cyano-1-pyrindan-2-yl)thio]-N-(5-ethyl-1,3,4-thiadiazol-2-yl)acetamide], the EC50 is > 407 nM.

The compound `CC1(C)CC(=O)C(=CNc2ccc3[nH]ncc3c2)C(=O)C1` [SMR000111453] displayed an EC50 of 9880 nM.

The compound `CCOC(=O)N1CCN(S(=O)(=O)c2ccc(C(=O)Nc3sc4c(c3C#N)CCC4)cc2)CC1` [4-[4-[(3-cyano-5,6-dihydro-4H-cyclopenta[b]thiophen-2-yl)carbamoyl]phenyl]sulfonylpiperazine-1-carboxylic acid ethyl ester] had an EC50 of 636 nM.

Turning to `CCOC(=O)c1cnc2c(-c3ccccc3)cnn2c1N` [7-amino-3-phenyl-6-pyrazolo[1,5-a]pyrimidinecarboxylic acid ethyl ester], it took 356 nM to reach a half-maximal effect (EC50).

As for `CCc1ccc(C(=O)NCc2cccs2)s1` [5-ethyl-N-(2-thenyl)thiophene-2-carboxamide], the EC50 was > 3670 nM.

In turn, `CC(=O)Nc1ccc(-c2cc3ccccc3o2)cc1` [MLS000036584] displayed an EC50 of 556 nM.

As to `CC(=Nc1cccc(O)c1)c1sc2ccccc2c1O` [(2Z)-2-[1-(3-hydroxyanilino)ethylidene]-1-benzothiophen-3-one], the concentration giving a half-maximal response (EC50) is > 3670 nM.

`O=C(CSc1ccccn1)c1ccc2c(c1)OCO2` [1-(1,3-benzodioxol-5-yl)-2-(2-pyridinylthio)ethanone] showed an EC50 of 1230 nM.

Compound `Cc1cc(C(=O)Nc2sc3c(c2C#N)CCC(C(C)(C)C)C3)no1` (centres undefined) [MLS000087312] yielded an EC50 of 8140 nM.

`CS(=O)(=O)c1ccc2nc(NC(=O)C3COc4ccccc4O3)sc2c1` (centres undefined) [MLS000056123] returned an EC50 of 7320 nM.

On to `Cc1cccc(-n2ccnc2SCC(=O)Nc2nccs2)c1` [2-[1-(3-methylphenyl)imidazol-2-yl]sulfanyl-N-(1,3-thiazol-2-yl)acetamide], for which the EC50 was > 11000 nM.

`C=CCn1c(C)cc(C(=O)CSc2nc(O)c3ccccc3n2)c1C` [2-[2-(2,5-dimethyl-1-prop-2-enyl-pyrrol-3-yl)-2-oxidanylidene-ethyl]sulfanyl-1H-quinazolin-4-one] showed an EC50 of 609 nM.

Compound `COC(=O)c1ccc(C(=O)C(C#N)c2nc3ccccc3s2)cc1` (centres undefined) [4-[(2Z)-2-(3H-1,3-benzothiazol-2-ylidene)-2-cyano-1-oxoethyl]benzoic acid methyl ester] registered an EC50 of 1610 nM.

As to `OCCOCCNc1ncnc2c1cnn2-c1ccc(Cl)cc1` [2-[2-[[1-(4-chlorophenyl)-4-pyrazolo[3,4-d]pyrimidinyl]amino]ethoxy]ethanol], a half-maximal effect (EC50) was put at 595 nM.

Compound `Cc1nc2sc(-c3ccccc3)cc2c(=O)n1-n1cccc1` [2-methyl-6-phenyl-3-(1-pyrrolyl)-4-thieno[2,3-d]pyrimidinone] had an EC50 of 112 nM.

As to `CCOc1ccc(OCC)c(NC(=O)CSc2nc3c(c(=O)n(C)c(=O)n3C)n2C(C)C)c1` [MLS000072726], it took 736 nM to reach a half-maximal effect (EC50).

Take `CCCOC(=O)c1ccc(NC(=O)C2CCCO2)cc1` (centres undefined) [4-(tetrahydrofuran-2-carbonylamino)benzoic acid propyl ester]: the EC50 was > 3670 nM.

`CC(=N)C(C#N)C(=O)CSc1ccc2c(c1)OCCO2` (centres undefined) [(E)-3-amino-2-[2-(2,3-dihydro-1,4-benzodioxin-6-ylsulfanyl)acetyl]but-2-enenitrile]: the EC50 stood at 1160 nM.

Take `Cn1c(-c2ccc3c(c2)OCO3)cnc1NCc1ccccc1` [(5-Benzo[1,3]dioxol-5-yl-1-methyl-1H-imidazol-2-yl)-benzyl-amine]: the EC50 is 11200 nM.

As to `CC(C)(C)c1cc(NC(=O)C2CCCO2)no1` (centres undefined) [MLS000065845], the EC50 is 2530 nM.

Regarding `CCOC(=O)C1CCN(S(=O)(=O)c2ccc(-c3nc4ccccc4s3)s2)CC1` [1-[[5-(1,3-benzothiazol-2-yl)-2-thienyl]sulfonyl]isonipecotic acid ethyl ester], a half-maximal response (EC50) required 1720 nM.

For the compound `CC(=O)c1c(C)[nH]c(C(=O)NCCc2cccc(C)c2)c1C` [MLS000045238], the EC50 amounted to 2930 nM.

Compound `O=C(CNc1ccccc1)Nc1ccc(F)cc1` [2-anilino-N-(4-fluorophenyl)acetamide] showed an EC50 of 3190 nM.

`CCOc1ccc(N2C(=O)c3ccccc3C2O)cc1` (centres undefined) [2-(4-ethoxyphenyl)-3-hydroxy-3H-isoindol-1-one] registered an EC50 of 886 nM.

In the case of `CN(C)c1ccc(NC(=O)Nc2cccc(Cl)c2)cc1` [1-(3-chlorophenyl)-3-[4-(dimethylamino)phenyl]urea], the EC50 is > 407 nM.

For `Cc1ccc(C(=O)Nc2ncc(Cc3ccccc3)s2)o1` [5-Methyl-furan-2-carboxylic acid (5-benzyl-thiazol-2-yl)-amide], the EC50 is > 407 nM.

Turning to `O=C(NCC1CCCO1)c1coc2nc3ccccc3nc12` (centres undefined) [MLS000046703], the EC50 was > 99000 nM.

In the case of `c1ccc(-c2cnc(CSc3nnc4ccccn34)o2)cc1` [5-phenyl-2-([1,2,4]triazolo[4,3-a]pyridin-3-ylsulfanylmethyl)-1,3-oxazole], the EC50 was > 1220 nM.

In the case of `Cc1cccnc1Nc1nc(-c2ccc(O)cc2O)cs1` [4-[2-(3-Methyl-pyridin-2-ylamino)-thiazol-4-yl]-benzene-1,3-diol], the EC50 is 1890 nM.

For the compound `CN(C)c1oc(-c2ccc(OCc3ccccc3)cc2)nc1C#N` [2-(4-benzoxyphenyl)-5-(dimethylamino)oxazole-4-carbonitrile], the EC50 came out at 2220 nM.

Regarding `COc1ccc2c(c1)CCc1c(C(=O)N3CCCCCC3)noc1-2` [1-azepanyl-(7-methoxy-4,5-dihydrobenzo[g][1,2]benzoxazol-3-yl)methanone], the EC50 was determined as 1570 nM.

For the compound `CCOC(=O)c1[nH]c2ccc(C)cc2c1N` [MLS000079379], the EC50 was determined as 731 nM.

Compound `Cc1ccc(-n2c(C)cc(C(=O)COC(=O)c3c(C)noc3C)c2C)cc1` [3,5-dimethyl-4-isoxazolecarboxylic acid [2-[2,5-dimethyl-1-(4-methylphenyl)-3-pyrrolyl]-2-oxoethyl] ester] yielded an EC50 of 1630 nM.

`CCn1c(SCC(=O)c2cccs2)nnc1-c1ccco1` [2-(4-Ethyl-5-furan-2-yl-4H-[1,2,4]triazol-3-ylsulfanyl)-1-thiophen-2-yl-ethanone] yielded an EC50 of 5820 nM.

Compound `CCOc1ccc(OCC)c(NC(=O)C2CCCN2S(=O)(=O)c2cccc3cccnc23)c1` (centres undefined) [MLS000119093] came in with an EC50 of 2160 nM.

`CCCCC1CCC(c2nc(-c3ccccn3)no2)CC1` (centres undefined) [SMR000105468]: the midpoint of the response, the EC50, lay at 403 nM.

In turn, `N#CCc1ccc(NC(=O)Nc2cccc(Cl)c2)cc1` [1-(3-chlorophenyl)-3-[4-(cyanomethyl)phenyl]urea] gave an EC50 of 1650 nM.
